In test [1] the target is T1, Peroxisome proliferator-activated receptor gamma (Homo sapiens, UniProt P37231).
T1 sequence (P37231 whole entry): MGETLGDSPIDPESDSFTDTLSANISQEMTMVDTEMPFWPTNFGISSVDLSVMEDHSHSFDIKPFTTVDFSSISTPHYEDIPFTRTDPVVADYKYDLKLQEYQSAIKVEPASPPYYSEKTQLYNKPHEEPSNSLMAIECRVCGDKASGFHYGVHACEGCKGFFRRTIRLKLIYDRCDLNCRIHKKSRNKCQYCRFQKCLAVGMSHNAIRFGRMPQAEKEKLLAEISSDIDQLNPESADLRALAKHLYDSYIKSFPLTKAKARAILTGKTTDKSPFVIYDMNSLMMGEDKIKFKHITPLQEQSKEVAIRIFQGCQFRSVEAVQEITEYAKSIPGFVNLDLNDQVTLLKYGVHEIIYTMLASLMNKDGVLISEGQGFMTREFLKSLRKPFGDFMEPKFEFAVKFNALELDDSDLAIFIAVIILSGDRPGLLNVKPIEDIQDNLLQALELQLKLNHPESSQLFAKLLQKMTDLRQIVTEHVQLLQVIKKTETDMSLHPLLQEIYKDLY
Description: Transactivation of recombinant GST-tagged PPARgamma (unknown origin) expressed in Escherichia coli assessed as N-terminal biotin-labeled PGC1alpha (196 to 221 residues) co-activator recruitment by TR-FRET assay

For test [2], the target named is T1, Peroxisome proliferator-activated receptor gamma. The source holds these as a separate data set.
Description: Displacement of N-terminal biotin-labeled SMRT-ID1 (2339 to 2363 residues) from recombinant GST-tagged PPARgamma (unknown origin) expressed in Escherichia coli by TR-FRET assay

As for `O=C(O)CCCc1cc2cc(Cl)ccc2n1S(=O)(=O)c1ccc2ncsc2c1` [LANIFIBRANOR], the EC50 (in general, the concentration giving half of the maximal effect) in test [1] was 3210 nM; in test [2] it was 1140 nM.

The values above are taken from ChEMBL document CHEMBL4020830, “Design, Synthesis, and Evaluation of a Novel Series of Indole Sulfonamide Peroxisome Proliferator Activated Receptor (PPAR) α/γ/δ Triple Activators: Discovery of Lanifibranor, a New Antifibrotic Clinical Candidate” (J Med Chem, 2018).
